According to US12357598B2, “Treatment of neurodevelopmental disorders” (THE REGENTS OF THE UNIVERSITY OF CALIFORNIA, priority 2018, dated 2025):

System: ddY mice
Assay: Oxylipin analysis of plasma and brain regions of juvenile offspring after maternal glyphosate exposure
Assay type: in vivo, mouse
Details: juvenile offspring (P28), maternal 0.095% glyphosate
Description: Collection of blood and brain samples and oxylipin analysis. Water or 0.095% glyphosate was given to pregnant mice from E5 to P21, as described above. The male offspring were separated from their mothers at weaning (P21). At juvenile (P28) stage, mice were deeply anesthetized with isoflurane and plasma was collected. Subsequently, brains were removed from the skulls. For Western blot analysis, brain regions such as prefrontal cortex (PFC), hippocampus, and striatum, were dissected from brain on ice. The samples were stored at −80° C. before assay. For oxylipin analysis, plasma was collected after isoflurane anesthesia at juvenile (P28) stage. Subsequently, PFC, hippocampus, and striatum were dissected from brain on ice, and the samples were stored at −80° C. before assay. Measurement of eicosanoids in the plasma and brain regions was performed at UC Davis using the previous method (4).

SMILES: O=C(O)CNCP(=O)(O)O [glyphosate]
- 4,5-DiHDPE level (PFC): 1.083 ± 0.242 pmol/g
- 5(6)-EpETrE level (PFC): 3862.881 ± 1353.639 pmol/g
- 5,6-DiHETrE level (PFC): 0.699 ± 0.113 pmol/g
- 5-HEPE level (PFC): 1.760 ± 0.234 pmol/g
- 5-HETE level (PFC): 18.560 ± 1.797 pmol/g
- 5-oxo-ETE level (PFC): 142.497 ± 16.459 pmol/g
- 6-keto-PGF1a level (PFC): 88.691 ± 7.208 pmol/g
- 7(8)-EpDPE level (PFC): 3640.707 ± 1175.101 pmol/g
- 8(9)-EpETE level (PFC): 1.992 ± 0.638 pmol/g
- 8(9)-EpETrE alt level (PFC): 447.323 ± 148.765 pmol/g
- 8(9)-EpETrE level (PFC): 12713.4 ± 6124.0 pmol/g
- 8-HEPE level (PFC): 0.959 ± 0.080 pmol/g
- 8-HETE level (PFC): 7.904 ± 0.840 pmol/g
- 9(10)-EpOME level (PFC): 57.775 ± 18.915 pmol/g
- 9,10,13-TriHOME level (PFC): 31.772 ± 4.440 pmol/g
- 9,12,13-TriHOME level (PFC): 52.749 ± 6.979 pmol/g
- 9-HETE level (PFC): 1.826 ± 0.587 pmol/g
- 9-HODE level (PFC): 32.184 ± 2.752 pmol/g
- 10(11)-EpDPE level (PFC): 270.138 ± 86.641 pmol/g
- 11(12)-EpETE level (PFC): 2.775 ± 0.733 pmol/g
- 11(12)-EpETrE level (PFC): 1128.684 ± 354.042 pmol/g
- 11,12-,15-TriHETrE level (PFC): 27.925 ± 2.262 pmol/g
- 11,12-DiHETrE level (PFC): 1.383 ± 0.124 pmol/g
- 11-HETE level (PFC): 275.604 ± 19.707 pmol/g
- 12(13)-EpOME level (PFC): 67.240 ± 21.629 pmol/g
- 12-HEPE level (PFC): 6.850 ± 1.105 pmol/g
- 12-HETE level (PFC): 448.365 ± 69.003 pmol/g
- 12-oxo-ETE level (PFC): 2140.116 ± 142.081 pmol/g
- 13(14)-EpDPE level (PFC): 190.175 ± 59.161 pmol/g
- 13,14-DiHDPE level (PFC): 0.851 ± 0.076 pmol/g
- 13-HODE level (PFC): 45.239 ± 3.261 pmol/g
- 14(15)-EpETE level (PFC): 1.633 ± 0.487 pmol/g
- 14(15)-EpETrE level (PFC): 1037.632 ± 291.994 pmol/g
- 14,15-DiHETrE level (PFC): 2.498 ± 0.243 pmol/g
- 15(16)-EpODE level (PFC): 0.500 ± 0.121 pmol/g
- 15(S)-HETrE level (PFC): 11.900 ± 1.029 pmol/g
- 15-HETE level (PFC): 313.016 ± 24.240 pmol/g
- 15-oxo-ETE level (PFC): 10.104 ± 1.289 pmol/g
- 16(17)-EpDPE level (PFC): 195.454 ± 58.684 pmol/g
- 16,17-DiHDPE level (PFC): 1.154 ± 0.110 pmol/g
- 17(18)-EpETE level (PFC): 3.729 ± 1.017 pmol/g
- 17-HDoHE level (PFC): 6200.527 ± 739.211 pmol/g
- 19(20)-EpDPE level (PFC): 353.450 ± 99.156 pmol/g
- 19,20-DiHDPE level (PFC): 7.491 ± 0.703 pmol/g
- EKODE level (PFC): 12.663 ± 1.143 pmol/g
- LTB3 level (PFC): 53.423 ± 26.072 pmol/g
- PGD2 level (PFC): 439.532 ± 37.011 pmol/g
- PGE2 level (PFC): 137.389 ± 14.051 pmol/g
- PGF2a level (PFC): 431.431 ± 34.510 pmol/g
- TXB2 level (PFC): 246.160 ± 16.777 pmol/g
- 4,5-DiHDPE level (hippocampus): 1.572 ± 0.704 pmol/mL
- 5(6)-EpETrE level (hippocampus): 917.184 ± 134.826 pmol/mL
- 5,6-DiHETrE level (hippocampus): 0.470 ± 0.051 pmol/mL
- 5-HEPE level (hippocampus): 2.917 ± 0.708 pmol/mL
- 5-HETE level (hippocampus): 16.705 ± 0.992 pmol/mL
- 5-oxo-ETE level (hippocampus): 94.461 ± 9.488 pmol/mL
- 6-keto-PGF1a level (hippocampus): 113.103 ± 15.509 pmol/mL
- 7(8)-EpDPE level (hippocampus): 460.824 ± 81.977 pmol/mL
- 8(9)-EpETE level (hippocampus): 3.435 ± 0.784 pmol/mL
- 8(9)-EpETrE alt level (hippocampus): 89.694 ± 12.609 pmol/mL
- 8(9)-EpETrE level (hippocampus): 971.2 ± 484.7 pmol/mL
- 8-HEPE level (hippocampus): 1.415 ± 0.182 pmol/mL
- 8-HETE level (hippocampus): 5.383 ± 0.796 pmol/mL
- 9(10)-EpOME level (hippocampus): 9.131 ± 1.032 pmol/mL
- 9,10,13-TriHOME level (hippocampus): 29.123 ± 5.450 pmol/mL
- 9,12,13-TriHOME level (hippocampus): 51.599 ± 10.194 pmol/mL
- 9-HETE level (hippocampus): 2.073 ± 0.532 pmol/mL
- 9-HODE level (hippocampus): 31.282 ± 6.681 pmol/mL
- 10(11)-EpDPE level (hippocampus): 40.179 ± 5.185 pmol/mL
- 11(12)-EpETE level (hippocampus): 1.254 ± 0.537 pmol/mL
- 11(12)-EpETrE level (hippocampus): 254.371 ± 33.701 pmol/mL
- 11,12-,15-TriHETrE level (hippocampus): 20.278 ± 1.789 pmol/mL
- 11,12-DiHETrE level (hippocampus): 0.914 ± 0.053 pmol/mL
- 11-HETE level (hippocampus): 261.315 ± 27.149 pmol/mL
- 12(13)-EpOME level (hippocampus): 11.355 ± 1.474 pmol/mL
- 12-HEPE level (hippocampus): 9.094 ± 3.984 pmol/mL
- 12-HETE level (hippocampus): 131.250 ± 40.185 pmol/mL
- 12-oxo-ETE level (hippocampus): 1245.436 ± 206.406 pmol/mL
- 13(14)-EpDPE level (hippocampus): 27.748 ± 3.955 pmol/mL
- 13,14-DiHDPE level (hippocampus): 0.516 ± 0.089 pmol/mL
- 13-HODE level (hippocampus): 54.648 ± 8.929 pmol/mL
- 14(15)-EpETE level (hippocampus): 0.712 ± 0.184 pmol/mL
- 14(15)-EpETrE level (hippocampus): 241.703 ± 26.592 pmol/mL
- 14,15-DiHETrE level (hippocampus): 1.183 ± 0.095 pmol/mL
- 15(16)-EpODE level (hippocampus): 2.750 ± 0.907 pmol/mL
- 15(S)-HETrE level (hippocampus): 7.994 ± 1.430 pmol/mL
- 15-HETE level (hippocampus): 263.402 ± 29.963 pmol/mL
- 15-oxo-ETE level (hippocampus): 8.232 ± 0.652 pmol/mL
- 16(17)-EpDPE level (hippocampus): 29.112 ± 4.286 pmol/mL
- 16,17-DiHDPE level (hippocampus): 0.675 ± 0.093 pmol/mL
- 17(18)-EpETE level (hippocampus): 1.592 ± 0.499 pmol/mL
- 17-HDoHE level (hippocampus): 5997.276 ± 762.508 pmol/mL
- 19(20)-EpDPE level (hippocampus): 55.856 ± 8.656 pmol/mL
- 19,20-DiHDPE level (hippocampus): 5.359 ± 0.322 pmol/mL
- EKODE level (hippocampus): 11.362 ± 1.014 pmol/mL
- LTB3 level (hippocampus): 13.669 pmol/mL
- PGD2 level (hippocampus): 349.020 ± 34.288 pmol/mL
- PGE2 level (hippocampus): 68.947 ± 7.203 pmol/mL
- PGF2a level (hippocampus): 314.752 ± 30.178 pmol/mL
- TXB2 level (hippocampus): 198.203 ± 24.835 pmol/mL
